In test [1] the test system is AR. On the set-up: method as in PMID 24742982. The settings on record: cited from earlier work.
Test [2] has as its system AR transactivation. The test is described as follows: AR transcriptional reporter assay in PC-3 cells. The class given is cell-based, human. The following applies: 10 nM DHT, 1 µM. How it is done:
Figure 1 Associations between RIPK1 and AR (A) Co-IP of Flag-RIPK1 with Flag-AR in the 293T cell line. Extracts of 293T cells overexpressing 3xFlag-RIPK1 and 3xFlag-AR were treated with […]. IP was performed using anti-AR (C19) or anti-RIPK1 antibody or normal rabbit serum (negative control), followed by immunoblotting (IB) with antibodies against AR or RIPK1. (B) RIPK1 interacts with full-length AR and the N- and C-terminal regions of AR in GST pull-down assays. Mutation of the FxxFY motif to AxxAA in RIPK1 reduced interactions with AR. […] (C) Transfection of PC-3 prostate cancer cells with AR and RIPK1. PC-3 cells in 24-well plates were co-transfected with 300 ng MMTV-LUC reporter plasmid and 0.5 ng SV40-Renilla luciferase plasmid, together with 100 ng pCMV-Flag-AR and 100, 300 or 500 ng p3xFLAG- RIPK1. The total plasmid DNA content was made up to 1 µg with pCMV. After 16 h, ethanol or 10 nM DHT was added and cells incubated for an additional 16 h. DHT was used as the AR ligand while ARA70N served as the positive control. Relative LUC activity was determined using the dual luciferase system. (D) RIPK1 functional domain mapping in relation to AR transactivation. PC-3 cells were transfected with pCMV-Flag-AR and RIPK1 expression plasmid, P3xFlag-RIPK1 full-length, P3xFlag-RIPK1-(240-671) or P3xflag-RIPK1-(1-558) plasmid, and cultured overnight. Ethanol or 10 nM DHT was added and cells incubated for an additional 16 h. Relative LUC activity was determined using the dual luciferase system. (E) RIPK1 is expressed in benign prostatic hyperplasia tissue, displaying strong positivity (3+, > 90%) in the gland area but weak (1+, 50%) staining in the background. (F) Human prostate cancer tissues were immunostained for RIPK1. “T” indicates the tumor area (right side) and “Non-T” the non-tumor area (left side). RIPK1 expression was weak (1+, 80%) in the cancer area but remained strong (3+, 70%) in the peri-cancer area. The figures are representative of three benign prostatic gland hyperplasia and cancer tissues.
The PC-3 prostate cancer cell line was used for experiments. […]
A general note: In a reporter assay the amount or activity of a reporter protein is the signal.

The target of test [3] is W741L-AR (bicalutamide-associated mutant androgen receptor, mammalian two-hybrid) (human). The experiment in a line: two-hybrid; mammalian two-hybrid (MM2H) in PC-3 cells; Gal-4 peptide fusion with AR; CDX (bicalutamide) 10 µM; values relative to Gal-4 alone.
Chain of W741L-AR (bicalutamide-associated mutant androgen receptor, mammalian two-hybrid) (human) (P10275 whole entry, stated change not applied, the tested form may be a part): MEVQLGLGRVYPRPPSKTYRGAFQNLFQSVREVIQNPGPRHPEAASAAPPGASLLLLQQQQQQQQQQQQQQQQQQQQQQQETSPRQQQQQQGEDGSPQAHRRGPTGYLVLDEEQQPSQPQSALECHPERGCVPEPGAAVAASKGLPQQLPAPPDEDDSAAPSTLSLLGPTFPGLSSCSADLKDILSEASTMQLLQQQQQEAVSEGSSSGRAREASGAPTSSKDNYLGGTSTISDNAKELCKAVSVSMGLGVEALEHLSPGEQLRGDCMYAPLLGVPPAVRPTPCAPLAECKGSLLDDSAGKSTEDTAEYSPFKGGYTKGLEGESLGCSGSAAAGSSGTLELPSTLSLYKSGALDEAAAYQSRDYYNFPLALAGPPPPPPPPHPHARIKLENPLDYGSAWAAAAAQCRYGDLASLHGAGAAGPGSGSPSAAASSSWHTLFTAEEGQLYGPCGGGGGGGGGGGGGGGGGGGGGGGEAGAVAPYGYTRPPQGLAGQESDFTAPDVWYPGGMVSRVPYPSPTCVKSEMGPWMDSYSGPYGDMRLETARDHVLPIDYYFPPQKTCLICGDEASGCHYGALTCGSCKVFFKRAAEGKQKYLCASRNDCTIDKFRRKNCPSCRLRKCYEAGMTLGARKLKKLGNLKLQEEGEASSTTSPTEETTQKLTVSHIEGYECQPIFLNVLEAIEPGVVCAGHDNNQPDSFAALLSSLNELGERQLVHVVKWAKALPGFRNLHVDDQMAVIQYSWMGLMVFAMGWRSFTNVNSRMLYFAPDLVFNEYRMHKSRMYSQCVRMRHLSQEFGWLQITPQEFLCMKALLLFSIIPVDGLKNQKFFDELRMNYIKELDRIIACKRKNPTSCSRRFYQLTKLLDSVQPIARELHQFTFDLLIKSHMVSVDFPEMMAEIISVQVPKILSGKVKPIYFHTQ

On to `Nc1cc(N2CCCCC2)nc(N)[n+]1[O-]` [Minoxidil], for which the “suppression of AR related function” value in test [1] is given as “suppress AR related function”.

Regarding `CNC(=O)c1ccc(N2C(=S)N(c3ccc(C#N)c(C(F)(F)F)c3)C(=O)C2(C)C)cc1F` [enzalutamide, reference compound], the “suppression of AR transactivation” value in test [2] is reported as “suppressed AR transactivation”.

On to NTNAFSRLFYPS [#3-18 peptide (No. 12, positive control; GAL4-DBD-3-18)], for which the relative reporter activity in the mammalian two-hybrid assay (Gal-4 alone = 1) in test [3] turned out to be 128.

The molecule GIEEKFRPFYLSQLE [RIP-p, short FxxFY-containing peptide of RIPK1 (No. 13)] gave a relative reporter activity in the mammalian two-hybrid assay (Gal-4 alone = 1) in test [3] of 554.

The values are drawn from article PMC5642495, “Characterization of a novel androgen receptor (AR) coregulator RIPK1 and related chemicals that suppress AR-mediated prostate cancer growth via peptide and chemical screening” (Oncotarget, 2017).
